SMILES strings stand for the structures.

For one experiment, the target named is T1, human SCD1 enzyme (Homo sapiens, UniProt O00767).
T1 sequence (O00767 1-359): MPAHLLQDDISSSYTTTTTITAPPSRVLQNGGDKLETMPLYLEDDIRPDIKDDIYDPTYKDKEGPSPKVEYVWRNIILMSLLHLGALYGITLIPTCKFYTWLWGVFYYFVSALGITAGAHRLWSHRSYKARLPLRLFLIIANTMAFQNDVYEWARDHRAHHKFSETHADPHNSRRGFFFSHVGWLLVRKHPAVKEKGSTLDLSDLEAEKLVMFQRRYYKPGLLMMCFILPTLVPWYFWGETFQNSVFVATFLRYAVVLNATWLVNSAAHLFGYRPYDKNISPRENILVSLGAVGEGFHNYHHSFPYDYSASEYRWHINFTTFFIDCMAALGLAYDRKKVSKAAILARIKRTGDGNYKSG
The experiment can be described thus: Tritiated water release assay (conversion of radiolabeled stearoyl-CoA to oleoyl-CoA). In kind it is biochemical. As to conditions: 10 μM concentration of test compounds; microsomal SCD1, 3H stearoyl CoA, 37° C. 30 minutes; percent of control reaction. How it is done: The in-vitro activity of the compounds of the present invention against stearoyl coenzyme desaturase was determined by following conversion of radiolabeled-stearoyl-CoA to oleoyl-CoA using human SCD1 enzyme using a previously published assay procedure with some modifications (Barbara R Talamo and Konrad Bloch, Analytical Biochemistry, 1969, 29, 300-304). This assay protocol is only illustrative and is not meant to limit to the scope of the present invention.
In this assay the microsomal SCD1 enzyme desaturates its substrate, Stearoyl CoA (purchased from American Radiochemicals Ltd.) which is tritiated at C9 and C10 positions. Test compounds were dissolved in dimethylsulfoxide and tested at 10 μM final concentration. Before substrate addition, the test compound or standard reference compound (conjugated linoleic acid at 100 μM final concentration) were pre-incubated in reaction buffer with the enzyme for 10 minutes at 30° C. with shaking. Reaction buffer was prepared as described in literature (Obukowicz et al. JPET, 1998, 287, 157-166) except that the MgCl2, ATP (purchased from Sigma) and CoA (purchased from Sigma) concentrations were changed to 4.9 mM, 7.2 mM and 0.54 mM respectively. The desaturation reaction was initiated by addition of 0.5 μCi of ^3H stearoyl CoA and incubated at 37° C. for 30 minutes with shaking. A control reaction was set without any test compound/reference inhibitor to capture maximum enzymatic activity in the assay. Inhibition of enzyme activity was calculated as a percent of this control reaction giving maximum catalysis and the results are given in Table 5.
Table 5: Tritiated water release assay at 10 μM substrate concentration *Conjugated Linoleic acid was used as a reference standard
With `Oc1ccc(C#Cc2ccc(N3CCC(Oc4ccccc4F)CC3)nn2)cc1` [Example 77], the inhibition (in general, the relative decrease from the control value, in per cent) at 10 µM came to 97%.

Staying with this experiment, now noted: 10 μM concentration of test compounds; microsomal SCD1, 3H stearoyl CoA, 37° C. 30 minutes; percent of control reaction; read-out: % Inhibition.
Regarding `[O-][n+]1cccc(C#Cc2ccc(N3CCC(Oc4ccccc4F)CC3)nc2)c1` [Example 74], the inhibition at 10 µM came out at 44%.
As to `O=C(c1cc(Cl)ccc1Cl)N1CCN(c2ccc(C#Cc3cccc(O)c3)cn2)CC1` [Example 28], the inhibition at 10 µM was 98%.
On to `O=C(c1ccccc1C(F)(F)F)N1CCN(c2ncc(C#Cc3ccc(N4CCCS4(=O)=O)cc3)cn2)CC1` [Example 51], for which the inhibition at 10 µM is 22%.
Consider `O=C(c1ccccc1C(F)(F)F)N1CCN(c2ccc(C#Cc3ccc(C(F)(F)F)cc3)nn2)CC1` [Example 41, 2-Trifluoromethylphenyl-4-{6-[2-(4-trifluoromethylphenyl)-1-ethynyl]-3-pyridazinyl}-piperazinomethanone], for which the inhibition at 10 µM was found to be 93%.
`COc1cc(C#Cc2ccc(N3CCC(Oc4ccccc4F)CC3)nn2)ccc1O` [Example 83, 2-Methoxy-4-{6-[4-(2-fluorophenoxy)piperidin-1-yl]pyridazin-3-yl}ethynylphenol]: the inhibition at 10 µM was found to be 93%.
On to `Fc1ccccc1OC1CCN(c2ccc(C#Cc3ccc(C(F)(F)F)cc3)nn2)CC1` [Example 84, 3-[4-(2-Fluorophenoxy)piperidino]-6-[2-(4-trifluoromethylphenyl)-1-ethynyl]pyridazine], for which the inhibition at 10 µM turned out to be 37%.
For the molecule `Oc1cccc(C#Cc2ccc(N3CCN(CC4CC4)CC3)nn2)c1` [Example 55, 3-({6-[4-(Cyclopropylmethyl)piperazin-1-yl]pyridazin-3-yl}ethynyl)phenol], the inhibition at 10 µM was found to be 60%.
With `Oc1ccc(C#Cc2ccc(N3CCC(Oc4cc(Cl)ccc4Cl)CC3)nn2)cc1` [Example 93, 4-[{6-[4-(2,5-Dichlorophenoxy)piperidin-1-yl]pyridazin-3-yl}ethynyl]phenol], the inhibition at 10 µM stood at 96%.
The same measure, in the same setting: with `O=C(Oc1ccc(C#Cc2ccc(N3CCC(Oc4ccccc4F)CC3)nn2)cc1)c1ccco1` [Example 80, 4-{6-[4-(2-Fluorophenoxy)piperidin-1-yl]pyridazin-3-yl}ethynylphenyl-2-furoate] the figure was 86%; with `CC(C)CCn1ccnc1C#Cc1ccc(N2CCN(C(=O)c3ccccc3C(F)(F)F)CC2)nc1` [Example 48], 22%.
For `Oc1ccc(C#Cc2ccc(N3CCC(Nc4ccccc4F)CC3)nn2)cc1` [Example 102, 4-{6-[4-(2-Fluorophenylamino)piperidin-1-yl]pyridazin-3-yl}ethynylphenol], the inhibition at 10 µM worked out at 96%.
Still for that read-out and setting: with `O=C(c1ccccc1C(F)(F)F)N1CCN(c2ccc(C#CC(O)c3ccccc3)cn2)CC1` (centres unmarked) [Example 8, 4-[5-(3-Hydroxy-3-phenyl-1-propynyl}-2-pyridyl}piperazino-2-trifluoromethylphenyl-methanone] the figure was 42%; with `Oc1ccc(C#Cc2ccc(NCCOc3ccccc3F)nn2)cc1` [Example 100], 63%; with `CCOC(=O)COc1cccc(C#Cc2ccc(N3CCN(C(=O)c4ccccc4C(F)(F)F)CC3)nc2)c1` [Example 26, Ethyl-2-[3-(2-{6-[4-(2-trifluoromethylbenzoyl)piperazino]-3-pyridyl}-1-ethynyl)-phenoxy]acetate], 27%.
As to `Oc1ccc(C#Cc2ccc(N3CCC(O)(Cc4ccccc4F)CC3)nn2)cc1` [Example 63, 4-(2-Fluorobenzyl)-1-{6-[(4-hydroxyphenyl)ethynyl]pyridazin-3-yl}piperidin-4-ol], the inhibition at 10 µM came to 94%.
As for `Oc1cccc(C#Cc2ccc(N3CCN(Cc4ccccc4F)CC3)nn2)c1` [Example 60, 3-({6-[4-(2-Fluorobenzyl)piperazin-1-yl]pyridazin-3-yl}ethynyl)phenol], the inhibition at 10 µM was 95%.
Regarding `O=C(c1ccccc1C(F)(F)F)N1CCN(c2ccc(C#CCOc3ccc(F)cc3)cn2)CC1` [Example 11, 4-[5-(3-(4-Fluorophenoxy)-1-propynyl)-2-pyridyl]piperazino-2-trifluoromethylphenyl-methanone], the inhibition at 10 µM was 63%.
The same measure, in the same setting: the value for `O=C(c1ccccc1C(F)(F)F)N1CCN(c2ccc(C#Cc3cccc(O)c3)cn2)CC1` [Example 25, 4-{5-[2-(3-Hydroxyphenyl)-1-ethynyl]-2-pyridyl}piperazino-2-trifluoromethylphenyl methanone] was 97%; that for `CCCCS(=O)(=O)NCC#Cc1ccc(N2CCN(C(=O)c3ccccc3C(F)(F)F)CC2)nc1` [Example 16, N1-(3-{6-[4-(2-Trifluoromethylbenzoyl)piperazino]-3-pyridyl}-2-propynyl)-1-butane sulfonamide] was 42%; that for `O=C(c1ccccc1C(F)(F)F)N1CCN(c2ccc(C#Cc3ccc(O)cc3)cn2)CC1` [Example 23, 4-{5-[2-(4-Hydroxyphenyl)-1-ethynyl]-2-pyridyl}piperazino-2-trifluoromethylphenyl methanone] was 91%.
Consider `O=C(c1ccccc1C(F)(F)F)N1CCN(c2ccc(C#Cc3cnccn3)cn2)CC1` [Example 45], for which the inhibition at 10 µM turned out to be 43%.
Turning to `Oc1ccc(C#Cc2ccc(N3CCC(O)(Cc4cc(Cl)ccc4Cl)CC3)nn2)cc1` [Example 65, 1-{6-[(4-Hydroxyphenyl)ethynyl]pyridazin-3-yl}-4-(2,5-dichlorobenzyl)piperidin-4-ol], the inhibition at 10 µM was found to be 93%.
Turning to `CC(=O)Oc1ccccc1C#Cc1ccc(N2CCN(C(=O)c3ccccc3C(F)(F)F)CC2)nc1` [Example 29], the inhibition at 10 µM was 24%.
Same read-out and setting: the value for `O=C(c1ccccc1C(F)(F)F)N1CCN(c2ccc(C#Cc3ccc(F)c(F)c3)nn2)CC1` [Example 40, 4-{6-[2-(3,4-Difluorophenyl)-1-ethynyl]-3-pyridazinyl}piperazino-2(trifluoromethyl)-phenylmethanone] was 81%; that for `CC(=O)Oc1ccc(C#Cc2ccc(N3CCC(Nc4ccccc4F)CC3)nn2)cc1` [Example 101] was 82%; that for `CC(=O)NCC#Cc1ccc(N2CCN(C(=O)c3ccccc3C(F)(F)F)CC2)nc1` [Example 15, N1-(3-{6-[4-(2-Trifluoromethylbenzoyl)piperazino]-3-pyridyl}-2-propynyl)acetamide] was 49%.
Consider `CCCCn1ccnc1C#Cc1ccc(N2CCN(C(=O)c3ccccc3C(F)(F)F)CC2)nc1` [Example 47, 4-{5-[2-(1-Butyl-1H-2-imidazolyl)-1-ethynyl]-2-pyridyl}piperazino-2-trifluoromethyl-phenylmethanone], for which the inhibition at 10 µM is 33%.
Consider `Fc1ccccc1OC1CCN(c2ccc(C#Cc3ccc4c(c3)OCO4)cn2)CC1` [Example 72], for which the inhibition at 10 µM came out at 38%.
As for `CC(C)(C)C(=O)Oc1cccc(C#Cc2ccc(N3CCC(Oc4ccccc4F)CC3)nn2)c1` [Example 87, 3-[{6-[4-(2-Fluorophenoxy)piperidin-1-yl]pyridazin-3-yl}ethynyl]phenyl pivalate], the inhibition at 10 µM was 27%.
Turning to `O=C(c1ccccc1C(F)(F)F)N1CCN(c2ncc(C#Cc3ccc(-n4cccc4)cc3)cn2)CC1` [Example 52], the inhibition at 10 µM turned out to be 39%.
Still for that read-out and setting: the value for `O=C(c1ccccc1C(F)(F)F)N1CCN(c2ncc(C#Cc3ccc4[nH]ccc4c3)cn2)CC1` [Example 50, 4-{5-[2-(1H-5-Indolyl)-1-ethynyl]-2-pyrimidinyl}piperazino-2-trifluoromethylphenyl-methanone] was 66%; that for `CC(=O)Oc1cccc(C#Cc2ccc(N3CCN(CC4CCCCC4)CC3)nn2)c1` [Example 56] was 92%.
As for `N#Cc1ccccc1OC1CCN(c2ccc(C#Cc3cccc(O)c3)nn2)CC1` [Example 88], the inhibition at 10 µM was 95%.
In the case of `Oc1cccc(C#Cc2cnc(N3CCC(Oc4ccccc4F)CC3)nc2)c1` [Example 98], the inhibition at 10 µM worked out at 95%.
As to `CC(=O)Oc1cccc(C#Cc2ccc(N3CCC(Oc4ccccc4F)CC3)nn2)c1` [Example 85], the inhibition at 10 µM worked out at 97%.
Still for that read-out and setting: the value for `O=C(c1ccccc1C(F)(F)F)N1CCN(c2ccc(C#CCO)cn2)CC1` [Example 1, 4-[5-(3-Hydroxy-1-propynyl)-2-pyridyl]piperazino-2-trifluoromethylphenylmethanone] was 36%.
The same measure, in the same setting: the value for `CC(C)(C)C#Cc1ccc(N2CCN(C(=O)c3ccccc3C(F)(F)F)CC2)nc1` [Example 18, 4-[5-(3,3-Dimethyl-1-butynyl)-2-pyridyl]piperazino-2-trifluoromethylphenylmethanone] was 26%.

For the origin of these results see US20080182851A1, “ACETYLENE DERIVATIVES AS STEAROYL COA DESATURASE INHIBITORS” (Glenmark Pharmaceuticals S.A., priority 2006, published 2008).
